Measurements taken from BindingDB's records for doi:10.1016/S0960-894X(97)00241-2 (1997).

Biological target: Nitric oxide synthase, brain (Bos taurus)
Assay: Inhibition against neuronal nitric oxide synthase (nNOS) from bovine brain was determined

Ki: 12 mM
Structure (SMILES): C#CCNC(=N)N [amino(prop-2-ynylamino)methaniminium]
